Test results: patent publication US20240301359A1, “SYSTEM COMPRISING CISPLATIN-RESISTANT XENOGRAFT FOR NASOPHARYNGEAL CARCINOMA AND METHODS THEREOF” (THE UNIVERSITY OF HONG KONG, priority 2023, published 2024)

Experiments:
Format in all cases: in vivo
[1] = system: xeno76-CR cisplatin-resistant NPC PDX; experiment: ixazomib treatment of xeno76-CR-bearing nude mice
Method: (§1) Xeno76-CR-bearing nude mice were randomized into the control and 4 mg/kg ixazomib treatment group (n=4). Referring to FIG. 5A, black arrows represent the treatment day. Data presented are mean (n=4) with error bars showing SEM. Statistical significance was done using one-way ANOVA, **** P<0.0001.
(§2) The images of size and appearance of the xeno76-CR tumor-bearing mice between control and treatment groups on day 21 are shown in FIG. 5B. […] In FIG. 5C and FIG. 5D, data presented are means (n=4) with error bars showing the SEM. Statistical significance was done using the unpaired two-tailed t-test. Black arrows represent the treatment day.

[2] = body weight and side effects in ixazomib-treated nude mice
Method: as §1, §2

xeno76 primary NPC = experiment: ixazomib sensitivity of primary NPC PDX xeno76; conditions: naïve to radio- and chemotherapy, relatively low dosage
xeno113 metastatic NPC = experiment: ixazomib sensitivity of metastatic NPC PDX xeno113; conditions: relatively low dosage
xeno76 NPC PDX = experiment: cisplatin treatment of xeno76 PDX-bearing nude mice
Method: (§3) Parental xeno76 and xeno76-CR-bearing nude mice were randomized into control and treatment groups (n=4). […] The tumor volume was measured and recorded during the whole treatment period, and the tumor growth curves of xeno76 and xeno76-CR are shown in Error! […] Black arrows represent the treatment day. The xeno76 and xeno76-CR nude mice were randomized respectively on day 0 and received the first treatment. Data presented are mean (n=4) with error bars showing SEM. Statistical significance was done using paired two-tailed t-test, *** P<0.001, ns P>0.05. Furthermore, the tumors of xeno76 and xeno76-CR were also weighed and harvested for further investigation (FIG. 2C). Statistical significance was done using the unpaired two-tailed t-test, ** P<0.01, ns P>0.05.

[3] = system: xeno76-CR cisplatin-resistant NPC PDX; experiment: cisplatin treatment of xeno76-CR PDX-bearing nude mice; conditions: 3 mg/kg cisplatin weekly i.p., at harvest, ns P>0.05
Method: as §3

[4] = maximum tolerated dose of cisplatin in nude mice; conditions: weekly i.p.
Text: A protocol for developing cisplatin-resistant PDX model from the NPC PDX models is described. NPC PDX tissues were implanted in nude mice subcutaneously (FIG. 1).

Row | SMILES | sensitivity to ixazomib ([1]; cisplatin-resistant NPC (xeno76-CR), relatively low dosage, summary statement) | tumor weight at the endpoint of the experiment ([1]; xeno76-CR, 4 mg/kg ixazomib, n=4 mean, control group 0.52 g, * P<0.05) [g] | tumor growth (tumor volume) vs control ([1]; xeno76-CR, 4 mg/kg ixazomib, three-week treatment, n=4, **** P<0.0001) | observable side effects or weight loss ([2]; 4 mg/kg ixazomib, xeno76-CR bearing nude mice) | side effects and body weight loss ([2]; all the tested animals, summary statement) | sensitivity to ixazomib (xeno76 primary NPC) | sensitivity to ixazomib (xeno113 metastatic NPC) | tumor growth (tumor volume) vs control (xeno76 NPC PDX; 3 mg/kg cisplatin in saline weekly i.p., n=4, *** P<0.001) | tumor weight vs control (xeno76 NPC PDX; 3 mg/kg cisplatin weekly i.p., at harvest) | tumor weight vs control [3] | maximum tolerated dose [4] [mg/kg]
1 | CC(C)C[C@H](NC(=O)CNC(=O)c1cc(Cl)ccc1Cl)B(O)O [ixazomib] | sensitive to ixazomib | 0.21 | effectively inhibited xeno76-CR growth | did not induce any observable side effects or weight loss | no side effects and body weight loss | sensitive to ixazomib | sensitive to ixazomib |  |  |  | 
2 | N.N.[Cl][Pt][Cl] [cisplatin] |  |  |  |  |  |  |  | significantly inhibited | significantly lighter than the xeno76 control group | no significant differences | 5
